Measured values from PubChem BioAssay AID1996.
Values after ≈ are worked out from the molar mass of the structure shown.

Settings: buffer; pH 7.4; 200.0 µM

Q: For `COc1ccc(C(=O)NCCNC(=O)c2ccc(OC)cc2)cc1`, which solubility kinetic is on record?
A: 2.9 µg/mL (≈ 8.83 µM)

Q: Which solubility kinetic does the source give for `COc1ccccc1CNCC(=O)Nc1cc(S(=O)(=O)N2CCCCC2)ccc1C.O=C(O)C(=O)O` here?
A: 34.3 µg/mL

Q: With `O=[N+]([O-])c1cccnc1N1CCN(c2ccccc2F)CC1` as the compound, how does the solubility kinetic read?
A: 9.6 µg/mL (≈ 31.8 µM)

Q: For `C/C(CC(=O)Nc1ccc(Cl)cc1C(F)(F)F)=N\NC(N)=S`, which solubility kinetic is on record?
A: > 52.9 µg/mL

Q: For `CNC(=S)Nc1ccc([N+](=O)[O-])cc1`, which solubility kinetic is on record?
A: > 31.7 µg/mL

Q: Which solubility kinetic does the source give for `COc1ccc(OCC(=O)Nc2ccc3oc(=O)ccc3c2)cc1` here?
A: 3.3 µg/mL (≈ 10.1 µM)

Q: With `CC(=O)c1cccc(NC(=O)Nc2ccc3c(c2)OCO3)c1` as the compound, how does the solubility kinetic read?
A: 3.1 µg/mL (≈ 10.4 µM)

Q: With `CCOC(=O)c1sc(NC(=O)c2ccc(=O)[nH]c2)nc1C` as the compound, how does the solubility kinetic read?
A: 7.3 µg/mL (≈ 23.8 µM)

Q: With `Cc1cc(C)nc(N(C#N)Cc2cccc(Cl)c2)n1` as the compound, how does the solubility kinetic read?
A: 23.6 µg/mL (≈ 86.5 µM)

Q: For `CC(=O)c1cccc(NC(=O)c2ccc3c(c2)CCCC3)c1`, which solubility kinetic is on record?
A: 0.8 µg/mL (≈ 2.73 µM)

Q: With `Nc1cc(N)nc(SCC(=O)NCc2ccc3c(c2)OCO3)n1` as the compound, how does the solubility kinetic read?
A: > 50 µg/mL

Q: With `O=C(Nc1cccc2ncccc12)c1ccc([N+](=O)[O-])o1` as the compound, how does the solubility kinetic read?
A: > 42.5 µg/mL

Q: Which solubility kinetic does the source give for `O=C(NC1CCCC1)c1cc(-c2ccc(F)cc2)on1` here?
A: 2.1 µg/mL (≈ 7.66 µM)

Q: With `COc1ccc(C2=NOC(C(=O)Nc3ccc4c(c3)OCO4)C2)cc1` (stereo not drawn) as the compound, how does the solubility kinetic read?
A: 1.6 µg/mL (≈ 4.7 µM)

Q: For `Cc1ccc(-c2csc(NC(=O)CN3C(=O)CCC3=O)n2)cc1`, which solubility kinetic is on record?
A: 0.5 µg/mL (≈ 1.52 µM)

Q: For `CC1CN(S(=O)(=O)c2cc(C(=O)N(C)Cc3cccs3)ccc2Cl)CC(C)O1` (stereo not drawn), which solubility kinetic is on record?
A: 64.6 µg/mL (≈ 146 µM)

Q: For `CCOc1c(N2CC(C)OC(C)C2)c(=O)c1=O` (stereo not drawn), which solubility kinetic is on record?
A: > 35.9 µg/mL

Q: Which solubility kinetic does the source give for `O=S(=O)(c1ccc(Cl)cc1Cl)N1CCCC1c1cccnc1` (stereo not drawn) here?
A: > 53.6 µg/mL

Q: Which solubility kinetic does the source give for `CCCCN=C1CC(C)(C)CC(=O)/C1=C(/O)CCC` here?
A: > 39.8 µg/mL

Q: With `Cc1ccccc1CSCC(=O)NCCSc1ccccn1` as the compound, how does the solubility kinetic read?
A: 49.1 µg/mL (≈ 148 µM)

Q: For `COc1cccc(-c2noc(CCC(=O)NCC3CCCO3)n2)c1` (stereo not drawn), which solubility kinetic is on record?
A: > 49.7 µg/mL

Q: With `Cc1ccc(C)c(S(=O)(=O)N2CCCN(C)CC2)c1` as the compound, how does the solubility kinetic read?
A: > 42.4 µg/mL

Q: With `O=C(OCC(=O)N1CCC(Cc2ccccc2)CC1)c1cccnc1Cl` as the compound, how does the solubility kinetic read?
A: 46.2 µg/mL (≈ 124 µM)

Q: Which solubility kinetic does the source give for `O=C(Cc1ccccc1F)OCN1C(=O)c2ccccc2C1=O` here?
A: 47 µg/mL (≈ 150 µM)

Q: Which solubility kinetic does the source give for `O=C(Nc1cccc2ncccc12)c1ccco1` here?
A: 30.5 µg/mL (≈ 128 µM)

Q: With `CC(=O)c1c(C)[nH]c(C(=O)OCC(=O)N(Cc2ccccc2)C(C)(C)C)c1C` as the compound, how does the solubility kinetic read?
A: 12 µg/mL (≈ 31.2 µM)

Q: For `O=C(COC(=O)c1cccc(Cl)c1)Nc1cccc(S(=O)(=O)NC2=NCCC2)c1`, which solubility kinetic is on record?
A: 63.3 µg/mL (≈ 145 µM)

Q: For `Cc1ccc(Nc2nc(C(=O)NCC3CCCO3)cs2)cc1` (stereo not drawn), which solubility kinetic is on record?
A: 9 µg/mL (≈ 28.4 µM)

Q: Which solubility kinetic does the source give for `CCOc1cc(N2CCOCC2)c(OCC)cc1NC(=O)COC(=O)c1ccc(Cl)nc1` here?
A: 5.2 µg/mL (≈ 11.2 µM)

Q: Which solubility kinetic does the source give for `N#C/C(=C\c1ccccc1[N+](=O)[O-])C(=O)NCc1ccccc1` here?
A: > 46.1 µg/mL

Q: With `S=C(NC1CCCCC1)N1CCN(c2ncccn2)CC1` as the compound, how does the solubility kinetic read?
A: 9.6 µg/mL (≈ 31.4 µM)

Q: Which solubility kinetic does the source give for `O=C(Nc1ccc2c(c1)CCC2)Nc1ccc(F)cc1F` here?
A: < 0.3 µg/mL

Q: With `CC(C)[C@H](NC(=O)c1ccccc1)C(=O)OCC(=O)Nc1ccc(S(=O)(=O)N2CCOCC2)cc1` as the compound, how does the solubility kinetic read?
A: 3 µg/mL (≈ 5.96 µM)

Q: For `CCN(CC(=O)NCc1ccc(F)cc1)C(=O)/C=C/c1ccco1`, which solubility kinetic is on record?
A: > 49.6 µg/mL

Q: For `Cc1c(Cl)cccc1NC(=S)N1CCCCCC1`, which solubility kinetic is on record?
A: 29.3 µg/mL (≈ 104 µM)

Q: Which solubility kinetic does the source give for `O=C(NOCc1ccccc1)c1ccc(Cl)cc1Cl` here?
A: 36.4 µg/mL (≈ 123 µM)

Q: Which solubility kinetic does the source give for `CNc1cc(C)nc(N2CCOCC2)n1` here?
A: > 31.2 µg/mL

Q: With `Cc1cc(C)c(S(=O)(=O)Cc2ccccc2)c(Cl)n1` as the compound, how does the solubility kinetic read?
A: > 44.4 µg/mL

Q: For `O=C(Nc1cccc(-c2nc3ccccc3[nH]2)c1)c1ccccn1`, which solubility kinetic is on record?
A: 6.2 µg/mL (≈ 19.7 µM)

Q: For `O=C(O)c1ccccc1NS(=O)(=O)c1cccc(NS(=O)(=O)c2cc(Br)ccc2Br)c1`, which solubility kinetic is on record?
A: > 88.5 µg/mL

Q: Which solubility kinetic does the source give for `O=[N+]([O-])c1ccccc1S(=O)(=O)N1CCSCC1` here?
A: 34.2 µg/mL (≈ 119 µM)

Q: For `O=C(Cc1ccc(Cl)cc1)OCC(=O)N1CCCCCC1`, which solubility kinetic is on record?
A: > 46.5 µg/mL

Q: Which solubility kinetic does the source give for `COc1cccc(C(C)NC(=O)Cc2cccs2)c1` (stereo not drawn) here?
A: > 41.3 µg/mL

Q: For `COc1ccc(CCC(C)NCC(C)c2ccccc2)cc1` (stereo not drawn), which solubility kinetic is on record?
A: > 44.6 µg/mL

Q: With `Cc1csc(NC(=O)c2sccc2C)n1` as the compound, how does the solubility kinetic read?
A: > 35.7 µg/mL

Q: Which solubility kinetic does the source give for `O=C(NCc1ccccc1)C(=O)Nc1nc(-c2ccccc2)cs1` here?
A: < 0.2 µg/mL

Q: For `CC1CCCCC1NC(=O)COC(=O)COc1ccccc1Cl` (stereo not drawn), which solubility kinetic is on record?
A: 17.8 µg/mL (≈ 52.4 µM)

Q: For `CCOc1ccc(NC(=S)NC(=O)C2CCCC2)cc1`, which solubility kinetic is on record?
A: 1 µg/mL (≈ 3.42 µM)

Q: With `CC(=O)NC1(C(F)(F)F)NC(=O)N(c2ccc(F)cc2)C1=O` (stereo not drawn) as the compound, how does the solubility kinetic read?
A: > 47.9 µg/mL

Q: For `Cc1ccc2c(c1)sc(C)[n+]2CCCS(=O)(=O)[O-]`, which solubility kinetic is on record?
A: > 42.8 µg/mL

Q: For `CC(C)(C)CC(=O)Nc1cc2c3c(c1)CCN3C(=O)CC2`, which solubility kinetic is on record?
A: > 43 µg/mL

Q: With `Cc1ccc(NC(=O)NC2CCCCCCC2)c(C)c1` as the compound, how does the solubility kinetic read?
A: < 0.3 µg/mL

Q: With `CC(=O)Nc1ccc(OCC(=O)Nc2ccc(Cl)c(S(=O)(=O)N3CCOCC3)c2)cc1` as the compound, how does the solubility kinetic read?
A: 10.7 µg/mL (≈ 22.9 µM)

Q: For `CC1CCCC(NC(=O)COC(=O)c2ccccc2[N+](=O)[O-])C1C` (stereo not drawn), which solubility kinetic is on record?
A: 48.6 µg/mL (≈ 145 µM)

Q: For `Cc1cc(N/C=C/C(=O)c2ccccc2)ccc1Br`, which solubility kinetic is on record?
A: < 0.7 µg/mL

Q: For `O=C(O)c1ccccc1NCc1ccsc1`, which solubility kinetic is on record?
A: > 35 µg/mL

Q: For `O=C(COC(=O)c1cnccn1)NC1CCCc2ccccc21` (stereo not drawn), which solubility kinetic is on record?
A: > 46.7 µg/mL

Q: With `COc1ccc(C(C)=O)cc1COC(=O)CNC(=O)C1CCCCC1` as the compound, how does the solubility kinetic read?
A: > 52.1 µg/mL
